# Source: patent US7390796B2, “Fatty acid modified forms of glucocorticoids” (Sepracor Inc., priority 2002, dated 2008)
# Key:
# paw edema = assay: Rat paw edema model; assay type: in vivo
# Procedure: Putative anti-inflammatory agents may also be tested in vivo in a rat paw edema model [Hirschelmann, R. and Bekemeier, H., Int J Tissue React 6, 471-475 (1984)], which persons of skill in the art accept as predictive of efficacy in treating asthma and rhinitis in humans. The phytanic acid ester of budesonide was tested in this model.
# RAW 264.7 cells = assay: Wash-out (duration of action) experiment, PGE2 production in LPS-stimulated RAW 264.7 cells; assay type: cell-based, rat; conditions: 2 hours at 50 times the IC50, washed 5 times, E. coli LPS stimulation, 24 hours
# Procedure: The […] cell line RAW 264.7 was obtained from the ATCC (catalog number 71-TIB) and maintained in Dulbecco's Modified Eagle Medium (GibcoBRL product number 11960-044) supplemented with 2 mM glutamine, 1 mM sodium pyruvate and 10% fetal calf serum at 37° C. in a 10% CO2 (balance air), humidified atmosphere. One week before experiments were done, the WI-38 cells were seeded into 48-well tissue culture dishes and maintained in media containing 10% fetal calf serum. The cells were used when confluent. The day before the experiment the cells were fed fresh media containing 10% fetal calf serum (0.25 ml per well). One the day of the experiment the media was removed from the cells and 0.25 ml of media containing 5% fetal calf serum added.
# (§1) To test for duration of action, a wash-out experiment was performed as follows. Confluent cells in 48-well tissue culture dishes were treated with concentrations of the above compounds that were 50 times the IC50 values as determined above for 2 hours. The media was removed and the wells washed 5 times with 0.25 ml of media containing 5% fetal calf serum. 0.25 ml of media containing 5% fetal calf serum was then added. The WI-38 cells were stimulated by addition of 0.001 ml of 0.025 ug/ml recombinant human Interleukin-1β (Calbiochem catalog number 407615) in 0.1% bovine serum albumin in phosphate buffered saline. The RAW 264.7 cells were stimulated by addition of 0.001 ml of 0.5 ug/ml E. coli 0127:B8 lipopolysaccharide (LPS-Sigma catalog number L-4516) in 0.1% bovine serum albumin in phosphate buffered saline. The cells were incubated for 24 hours and the supernatants harvested. The level of PGE2 in the supernatants was assayed using a commercial Enzyme Immuno Assay (EIA) kit (Cayman Chemical catalog number 514010) after diluting 1:10 in EIA buffer according to the manufacturer's directions. Eight wells were used for each concentration and the results from these eight wells were averaged.
# WI-38 cells [1] = assay: IC50 for inhibition of IL-1β-stimulated PGE2 production in WI-38 cells; assay type: cell-based, human; conditions: PGE2 in supernatant, IL-1β stimulation, 24 hours, EIA
# Procedure: Nominal 5 mM solutions of the budesonide fatty acid esters were made in DMSO by adding the following amounts of compound and DMSO: docosahexaenoic acid ester of budesonide 7.5 mg in 2 ml DMSO, docosapentaenoic acid ester of budesonide 32.9 mg in 9.1 ml DMSO and eicosapentaenoic acid ester of budesonide 20.3 mg in 5.8 ml DMSO. A 5 mM solution of budesonide was made by dissolving 4.5 mg of budesonide (Sigma Chemical Company product number B 7777) in 2.1 ml DMSO.
# (§2) The WI-38 human lung fibroblast line was obtained from the ATCC (catalog number 75-CCL) and maintained in Basel Medium Eagle with Earle's salts (GibcoBRL product number 21010-046) supplemented with 2 mM glutamine and 10% fetal calf serum at 37° C. in a 7% CO2 (balance air), humidified atmosphere. One week before experiments were done, the WI-38 cells were seeded into 48-well tissue culture dishes and maintained in media containing 10% fetal calf serum. The cells were used when confluent. The day before the experiment the cells were fed fresh media containing 10% fetal calf serum (0.25 ml per well). One the day of the experiment the media was removed from the cells and 0.25 ml of media containing 5% fetal calf serum added.
# To determine the IC50 values for the compounds, 1 to 1000 dilutions were made of the 5 mM stock solutions in DMSO to give 5 uM solutions. These solutions were serially diluted 1:2 in DMSO to give a series of 12 dilutions ranging from 5 uM to 2.4 nM. 0.0025 ml aliquots of the 12 dilutions were added to wells of the WI-38 cells to give final compound concentrations ranging from 50 nM to 0.024 nM. The cells were stimulated by addition of 0.001 ml of 0.025 ug/ml recombinant human Interleukin-1β (IL-1β-Calbiochem catalog number 407615) in 0.1% bovine serum albumin in phosphate buffered saline. The cells were incubated for 24 hours and the supernatants harvested. The level of PGE2 in the supernatants was assayed using a commercial Enzyme Immuno Assay (EIA) kit (Cayman Chemical catalog number 514010) after diluting 1:10 in EIA buffer according to the manufacturer's directions. The data from these experiments was fit to a 4 parameter logistic function using the IC50 routine in the Grafit 4 program (Erithecus software).
# WI-38 cells [2] = assay: Wash-out (duration of action) experiment, PGE2 production in IL-1β-stimulated WI-38 cells; assay type: cell-based, human; conditions: 2 hours at 50 times the IC50, washed 5 times, IL-1β stimulation, 24 hours
# Procedure: as §2, §1
smiles,measurement,setting,value
"CCCC1OC2CC3C4CCC5=CC(=O)C=CC5(C)C4C(O)CC3(C)C2(C(=O)COC(=O)CC(C)CCCC(C)CCCC(C)CCCC(C)C)O1 (stereo not shown) [Phytanic acid ester of Budesonide, phytanic acid ester of budesonide]",percent reduction in paw volume,"paw edema; dose 0.0017 μg/paw, 1.5 hours",0%
same,percent reduction in paw volume,"paw edema; dose 0.0017 μg/paw, 3 hours",10%
same,percent reduction in paw volume,"paw edema; dose 0.0017 μg/paw, 4.5 hours",12%
same,percent reduction in paw volume,"paw edema; dose 0.0017 μg/paw, 24 hours",4%
same,percent reduction in paw volume,"paw edema; dose 0.0017 μg/paw, 48 hours",7%
same,percent reduction in paw volume,"paw edema; dose 0.0017 μg/paw, 72 hours",3%
same,percent reduction in paw volume,"paw edema; dose 0.017 μg/paw, 1.5 hours",0%
same,percent reduction in paw volume,"paw edema; dose 0.017 μg/paw, 3 hours",0%
same,percent reduction in paw volume,"paw edema; dose 0.017 μg/paw, 4.5 hours",0%
same,percent reduction in paw volume,"paw edema; dose 0.017 μg/paw, 24 hours",0%
same,percent reduction in paw volume,"paw edema; dose 0.017 μg/paw, 48 hours",0%
same,percent reduction in paw volume,"paw edema; dose 0.017 μg/paw, 72 hours",6%
same,percent reduction in paw volume,"paw edema; dose 0.17 μg/paw, 1.5 hours",0%
same,percent reduction in paw volume,"paw edema; dose 0.17 μg/paw, 3 hours",0%
same,percent reduction in paw volume,"paw edema; dose 0.17 μg/paw, 4.5 hours",0%
same,percent reduction in paw volume,"paw edema; dose 0.17 μg/paw, 24 hours",0%
same,percent reduction in paw volume,"paw edema; dose 0.17 μg/paw, 48 hours",0%
same,percent reduction in paw volume,"paw edema; dose 0.17 μg/paw, 72 hours",0%
same,percent reduction in paw volume,"paw edema; dose 1.7 μg/paw, 1.5 hours",18%
same,percent reduction in paw volume,"paw edema; dose 1.7 μg/paw, 3 hours",15%
same,percent reduction in paw volume,"paw edema; dose 1.7 μg/paw, 4.5 hours",2%
same,percent reduction in paw volume,"paw edema; dose 1.7 μg/paw, 24 hours",30%
same,percent reduction in paw volume,"paw edema; dose 1.7 μg/paw, 48 hours",17%
same,percent reduction in paw volume,"paw edema; dose 1.7 μg/paw, 72 hours",16%
same,percent reduction in paw volume,"paw edema; dose 17 μg/paw, 1.5 hours",11%
same,percent reduction in paw volume,"paw edema; dose 17 μg/paw, 3 hours",5%
same,percent reduction in paw volume,"paw edema; dose 17 μg/paw, 4.5 hours",2%
same,percent reduction in paw volume,"paw edema; dose 17 μg/paw, 24 hours",74%
same,percent reduction in paw volume,"paw edema; dose 17 μg/paw, 48 hours",79%
same,percent reduction in paw volume,"paw edema; dose 17 μg/paw, 72 hours",65%
same,duration of effect,"paw edema; rat paw edema model, summary in words",greatly extended duration of effect
"CCCC1O[C@@H]2C[C@H]3[C@@H]4CCC5=CC(=O)C=C[C@]5(C)[C@H]4[C@@H](O)C[C@]3(C)[C@]2(C(=O)CO)O1 (stereo partly shown) [Budesonide, budesonide, reference compound]",PGE2 production,RAW 264.7 cells,1339 pg/mL
same,IC50,"WI-38 cells [1]; Homo sapiens, WI-38",0.2 nM
same,percent reduction in paw volume,"paw edema; dose 0.001 μg/paw, 1.5 hours",0%
same,percent reduction in paw volume,"paw edema; dose 0.001 μg/paw, 3 hours",20%
same,percent reduction in paw volume,"paw edema; dose 0.001 μg/paw, 4.5 hours",15%
same,percent reduction in paw volume,"paw edema; dose 0.001 μg/paw, 24 hours",4%
same,percent reduction in paw volume,"paw edema; dose 0.001 μg/paw, 48 hours",3%
same,percent reduction in paw volume,"paw edema; dose 0.001 μg/paw, 72 hours",0%
same,percent reduction in paw volume,"paw edema; dose 0.01 μg/paw, 1.5 hours",0%
same,percent reduction in paw volume,"paw edema; dose 0.01 μg/paw, 3 hours",18%
same,percent reduction in paw volume,"paw edema; dose 0.01 μg/paw, 4.5 hours",0%
same,percent reduction in paw volume,"paw edema; dose 0.01 μg/paw, 24 hours",11%
same,percent reduction in paw volume,"paw edema; dose 0.01 μg/paw, 48 hours",0%
same,percent reduction in paw volume,"paw edema; dose 0.01 μg/paw, 72 hours",3%
same,percent reduction in paw volume,"paw edema; dose 0.1 μg/paw, 1.5 hours",14%
same,percent reduction in paw volume,"paw edema; dose 0.1 μg/paw, 3 hours",5%
same,percent reduction in paw volume,"paw edema; dose 0.1 μg/paw, 4.5 hours",0%
same,percent reduction in paw volume,"paw edema; dose 0.1 μg/paw, 24 hours",0%
same,percent reduction in paw volume,"paw edema; dose 0.1 μg/paw, 48 hours",0%
same,percent reduction in paw volume,"paw edema; dose 0.1 μg/paw, 72 hours",0%
same,percent reduction in paw volume,"paw edema; dose 1 μg/paw, 1.5 hours",36%
same,percent reduction in paw volume,"paw edema; dose 1 μg/paw, 3 hours",45%
same,percent reduction in paw volume,"paw edema; dose 1 μg/paw, 4.5 hours",32%
same,percent reduction in paw volume,"paw edema; dose 1 μg/paw, 24 hours",44%
same,percent reduction in paw volume,"paw edema; dose 1 μg/paw, 48 hours",17%
same,percent reduction in paw volume,"paw edema; dose 1 μg/paw, 72 hours",10%
same,percent reduction in paw volume,"paw edema; dose 10 μg/paw, 1.5 hours",11%
same,percent reduction in paw volume,"paw edema; dose 10 μg/paw, 3 hours",33%
same,percent reduction in paw volume,"paw edema; dose 10 μg/paw, 4.5 hours",34%
same,percent reduction in paw volume,"paw edema; dose 10 μg/paw, 24 hours",70%
same,percent reduction in paw volume,"paw edema; dose 10 μg/paw, 48 hours",38%
same,percent reduction in paw volume,"paw edema; dose 10 μg/paw, 72 hours",6%
same,PGE2 production,WI-38 cells [2],2688 pg/mL
"CCC=CCC=CCC=CCC=CCC=CCC=CCCC(=O)OCC(=O)C12OC(CCC)OC1CC1C3CCC4=CC(=O)C=CC4(C)C3C(O)CC12C (stereo not shown) [Docosahexaenoic acid ester of budesonide, docosahexaenoic acid ester of budesonide]",PGE2 production,RAW 264.7 cells,892 pg/mL
same,IC50,WI-38 cells [1],1.1 nM
same,PGE2 production,WI-38 cells [2],2075 pg/mL
CCC=CCC=CCC=CCC=CCC=CCCCCCC(=O)OCC(=O)C12OC(CCC)OC1CC1C3CCC4=CC(=O)C=CC4(C)C3C(O)CC12C (stereo not shown) [docosapentaenoic acid ester of budesonide],PGE2 production,RAW 264.7 cells,622 pg/mL
same,IC50,WI-38 cells [1],9 nM
same,PGE2 production,WI-38 cells [2],200 pg/mL
CCC=CCC=CCC=CCC=CCC=CCCCC(=O)OCC(=O)C12OC(CCC)OC1CC1C3CCC4=CC(=O)C=CC4(C)C3C(O)CC12C (stereo not shown) [eicosapentaenoic acid ester of budesonide],PGE2 production,RAW 264.7 cells,576 pg/mL
same,IC50,WI-38 cells [1],1.3 nM
same,PGE2 production,WI-38 cells [2],806 pg/mL
